According to US9056099B2, “Compositions and methods for treating viral diseases” (NovaDrug, LLC, priority 2010, dated 2015):

Tested on: HCV (JFH-1) in Huh7-1 cells
Assay: Assay for anti-HCV efficacy: JFH-1 HCV infection of Huh7-1 cultures, intracellular HCV RNA by RT-qPCR
Assay type: cell-based, Hepatitis C virus
Conditions: % viral titer at 5 μM or 15 μM, HCV-infected Huh7-1 cultures
Description: In the past, HCV studies involved mainly infected patients and chimpanzees. Recently, a robust HCV infection system was developed with cells derived from the Huh-7 human hepatoma cell line (see, for example, Yu et al., “Development of a cell-based hepatitis C virus infection fluorescent resonance energy transfer assay for high-throughput antiviral compound screening” Antimicrob Agents Chemother. 2009 53:4311-4319 for additional details regarding growing virus stocks, maintenance of the Huh-7 cells, infection parameters, and HCV titers determinations; and Yu & Uprichard “Cell-based hepatitis C virus infection fluorescence resonance energy transfer (FRET) assay for antiviral compound screening” Curr Protoc Microbiol. 2010; Chapter 17: Unit 17.5). Briefly, the assay is based on the unique JFH-1 HCV consensus cDNA derived from an HCV patient. Using reverse genetics, the infectious virus can be rescued from this HCV clone. The recovered viable JFH virus can be passaged serially in Huh-7 cells. For this reason, this system is amenable for testing the activity of potential drugs for their anti-HCV efficacy. The antiviral activity of the compounds described herein is tested in this system.
Initially, 6×10^3 Huh7-1 cells are incubated overnight in each well of collagen-coated BioCoat 96-well plates (BD Biosciences, Bedford, Mass.) in 0.2 mL 10% Medium composed of Dulbecco's modified Eagle's medium supplemented with 10% fetal bovine serum. Subsequently, at 2 day intervals, the cultures are replenished with fresh 0.2 mL 10% Medium. Once the cultures become confluent, they are continually replenished at 2 day intervals with fresh 0.2 mL 10% Medium that also includes 1% dimethyl sulfoxide (DMSO). After 20 days of these replenishments, the Huh7-1 cultures are incubated with fresh 1% Medium (same as 10% Medium except that the serum level is 1%) containing HCV at a multiplicity of infection (MOI) of 0.05 focus forming units (ffu)/cell. The HCV (JFH-1wt Huh7) stock titer is 1.5×10^5 ffu/mL. The next day (day 1 post-infection) and 2 days later (day 3 post-infection) the media are replenished with fresh 1% Medium containing the test compounds dissolved in DMSO. On the 5th day of treatment with the compounds, cell lysates are collected for RNA isolation and Real Time-quantitative Reverse Transcription Polymerase Chain Reaction (RT-qPCR) and culture media are collected for cytotoxicity analysis.
Total RNA is isolated from cells by the guanidine thiocyanate method using standard protocols. One μg RNA is used for cDNA synthesis using TaqMan reverse transcription reagents (Applied Biosystems, Foster City, Calif.) followed by real-time PCR using an Applied Biosystems 7300 real-time thermocycler. Illustrative thermal cycling consists of initial denaturation of 10 min at 95° C. followed by 40 cycles of denaturation (15 s at 95° C.) and annealing/extension (1 m at 60° C.). HCV and human glyceraldehyde-3-phosphate dehydrogenase (GAPDH) RNA levels are determined relative to a standard curve of serial dilutions of plasmid containing JFH-1 HCV or GAPDH cDNA. The PCR primers used to detect GAPDH and HCV are illustratively: GAPDH (NMX002046) 5′-GAAGGTGAAGGTCGGAGTC-3′ (SEQ ID NO: 5) (sense) and 5′-[…]-3′ (SEQ ID NO: 6) (anti-sense) JFH-1 HCV (AB047639) 5′-TCTGCGGAACCGGTGAGTA-3′ (SEQ ID NO: 7) (sense) and 5′-TCAGGCAGTACCACAAGGC-3′ (SEQ ID NO: 8) (anti-sense).
FIGS. 1-7 illustrate the intracellular HCV RNA levels when cultures are incubated with the selected test compounds at the doses shown. When HCV RNA levels are compared among the samples, the data may indicate that the compounds cause a dose dependent decrease in HCV RNA levels relative to the mock-treated (no compound added) HCV infected control.

SMILES	Activity (viral titer) (Compound Example 1 series)	Activity (viral titer) (Compound Example 2 series)
O=C(c1ccccc1F)N1CC(c2ccsc2)C2CN(Cc3ccccc3F)CCC21 (stereo not drawn)	− (>60% viral titer at 15 μM (highest concentration tested))	
O=C(c1ccccc1F)N1C[C@H](c2ccsc2)[C@H]2CN(Cc3ccccn3)CC[C@H]21	− (>60% viral titer at 15 μM (highest concentration tested))	
O=C(c1ccccc1F)N1C[C@H](c2ccsc2)[C@H]2CN(Cc3cccc(F)c3)CC[C@H]21	++ (≦60% viral titer at 5 μM)	
Cc1cccc(CN2CCC3C(C2)C(c2ccsc2)CN3C(=O)c2ccccc2F)c1 (stereo not drawn)	++ (≦60% viral titer at 5 μM)	
O=C(c1ccccc1F)N1C[C@H](c2ccsc2)[C@H]2CN(Cc3cccnc3)CC[C@H]21	− (>60% viral titer at 15 μM (highest concentration tested))	
O=C(c1ccccc1F)N1C[C@H](c2ccsc2)[C@H]2CN(Cc3ccc(F)cc3)CC[C@H]21	+++ (≦30% viral titer at 5 μM)	
Cc1ccc(CN2CC[C@@H]3[C@H](C2)[C@@H](c2ccsc2)CN3C(=O)c2ccccc2F)cc1	− (>60% viral titer at 15 μM (highest concentration tested))	
O=C(c1ccccc1F)N1CC(c2ccsc2)C2CN(Cc3ccncc3)CCC21 (stereo not drawn)	− (>60% viral titer at 15 μM (highest concentration tested))	
O=C(c1ccccc1F)N1CC(c2ccsc2)C2CN(Cc3ccccc3)CCC21 (stereo not drawn)	− (>60% viral titer at 15 μM (highest concentration tested))	
COc1ccc(CN2CCC3C(C2)C(c2ccc(F)cc2)CN3C(=O)c2ccccn2)cc1 (stereo not drawn)	− (>60% viral titer at 15 μM (highest concentration tested))	
COc1cccc(CN2CCC3C(C2)C(c2ccc(F)cc2)CN3C(=O)c2ccccn2)c1 (stereo not drawn)	− (>60% viral titer at 15 μM (highest concentration tested))	
O=C(c1ccccn1)N1CC(c2ccc(F)cc2)C2CN(Cc3ccccn3)CCC21 (stereo not drawn)	− (>60% viral titer at 15 μM (highest concentration tested))	
Cc1cccc(CN2CCC3C(C2)C(c2ccc(F)cc2)CN3C(=O)c2ccccn2)c1 (stereo not drawn)	− (>60% viral titer at 15 μM (highest concentration tested))	
O=C(c1ccccn1)N1CC(c2ccc(F)cc2)C2CN(Cc3cccnc3)CCC21 (stereo not drawn)	− (>60% viral titer at 15 μM (highest concentration tested))	
O=C(c1ccccn1)N1CC(c2ccc(F)cc2)C2CN(Cc3ccc(Cl)cc3)CCC21 (stereo not drawn)	− (>60% viral titer at 15 μM (highest concentration tested))	
O=C(c1cccs1)N1CC(c2ccc(F)cc2)C2CN(Cc3ccccc3F)CCC21 (stereo not drawn)	+ (≦60% viral titer at 15 μM)	
Cc1ccccc1CN1CC[C@@H]2[C@H](C1)[C@@H](c1ccc(F)cc1)CN2C(=O)c1cccs1	− (>60% viral titer at 15 μM (highest concentration tested))	
O=C(c1cccs1)N1C[C@H](c2ccc(F)cc2)[C@H]2CN(Cc3ccccn3)CC[C@H]21	− (>60% viral titer at 15 μM (highest concentration tested))	
O=C(c1cccs1)N1C[C@H](c2ccc(F)cc2)[C@H]2CN(Cc3ccccc3)CC[C@H]21	− (>60% viral titer at 15 μM (highest concentration tested))	
O=C(c1cccnc1)N1CC(c2ccc(F)cc2)C2CN(Cc3ccccc3Cl)CCC21 (stereo not drawn)	− (>60% viral titer at 15 μM (highest concentration tested))	
O=C(c1cccnc1)N1C[C@H](c2ccc(F)cc2)[C@H]2CN(Cc3ccc(Cl)cc3)CC[C@H]21	+++ (≦30% viral titer at 5 μM)	
O=C(c1cccnc1)N1CC(c2ccc(F)cc2)C2CN(Cc3ccc(F)cc3)CCC21 (stereo not drawn)	− (>60% viral titer at 15 μM (highest concentration tested))	
O=C(c1cccnc1)N1C[C@H](c2ccc(F)cc2)[C@H]2CN(Cc3ccncc3)CC[C@H]21	− (>60% viral titer at 15 μM (highest concentration tested))	
O=C(c1cccnc1)N1C[C@H](c2ccc(F)cc2)[C@H]2CN(Cc3ccccc3)CC[C@H]21	++ (≦60% viral titer at 5 μM)	

SMILES	Activity (viral titer) (Compound Example 1 series)	Activity (viral titer) (Compound Example 2 series)
O=C(c1ccc(F)cc1)N1C[C@H](c2ccsc2)[C@H]2CN(Cc3cccs3)CC[C@H]21	− (>60% viral titer at 15 μM (highest concentration tested))	
O=C(c1ccncc1)N1CC(c2ccsc2)C2CN(Cc3cccs3)CCC21 (stereo not drawn)	− (>60% viral titer at 15 μM (highest concentration tested))	
O=C(c1ccncc1)N1CC(c2ccc(F)cc2)C2CN(Cc3cccs3)CCC21 (stereo not drawn)	− (>60% viral titer at 15 μM (highest concentration tested))	
O=C(c1ccncc1)N1CC(c2ccc(F)cc2)C2CN(Cc3ccsc3)CCC21 (stereo not drawn)	− (>60% viral titer at 15 μM (highest concentration tested))	
COc1cccc([C@H]2CN(C(=O)c3ccccc3)[C@@H]3CCN(Cc4ccccc4F)C[C@H]23)c1	+ (≦60% viral titer at 15 μM)	
COc1cccc(C2CN(C(=O)c3ccccc3)C3CCN(Cc4ccccn4)CC23)c1 (stereo not drawn)	− (>60% viral titer at 15 μM (highest concentration tested))	
COc1cccc([C@H]2CN(C(=O)c3ccccc3)[C@@H]3CCN(Cc4cccs4)C[C@H]23)c1	− (>60% viral titer at 15 μM (highest concentration tested))	
COc1cccc([C@H]2CN(C(=O)c3ccccc3)[C@@H]3CCN(Cc4cccc(F)c4)C[C@H]23)c1	− (>60% viral titer at 15 μM (highest concentration tested))	
COc1cccc(C2CN(C(=O)c3ccccc3)C3CCN(Cc4ccsc4)CC23)c1 (stereo not drawn)	++ (≦60% viral titer at 5 μM)	
COc1cccc(C2CN(C(=O)c3ccccc3)C3CCN(Cc4ccc(C)cc4)CC23)c1 (stereo not drawn)	+ (≦60% viral titer at 15 μM)	
COc1cccc([C@H]2CN(C(=O)c3ccccc3)[C@@H]3CCN(Cc4ccncc4)C[C@H]23)c1	− (>60% viral titer at 15 μM (highest concentration tested))	
COc1cccc([C@H]2CN(C(=O)c3ccccc3)[C@@H]3CCN(Cc4ccccc4)C[C@H]23)c1	− (>60% viral titer at 15 μM (highest concentration tested))	
COc1cccc(CN2CCC3C(C2)C(c2ccc(F)cc2)CN3C(=O)c2ccccc2)c1 (stereo not drawn)	+++ (≦30% viral titer at 5 μM)	
O=C(c1ccccc1)N1C[C@H](c2ccc(F)cc2)[C@H]2CN(Cc3ccc(F)cc3)CC[C@H]21	+++ (≦30% viral titer at 5 μM)	
COc1ccc(CN2CC[C@@H]3[C@H](C2)[C@@H](c2ccc(F)cc2)CN3C(=O)c2ccccc2)cc1	++ (≦60% viral titer at 5 μM)	
O=C(c1ccccc1)N1CC(c2ccc(F)cc2)C2CN(Cc3ccccc3)CCC21 (stereo not drawn)	++ (≦60% viral titer at 5 μM)	
COc1ccc(C2CN(C(=O)c3ccccc3)C3CCN(Cc4ccccc4F)CC23)cc1 (stereo not drawn)	++ (≦60% viral titer at 5 μM)	
COc1ccc(C2CN(C(=O)c3ccccc3)C3CCN(Cc4cccs4)CC23)cc1 (stereo not drawn)	− (>60% viral titer at 15 μM (highest concentration tested))	
COc1ccc([C@H]2CN(C(=O)c3ccccc3)[C@@H]3CCN(Cc4ccsc4)C[C@H]23)cc1	− (>60% viral titer at 15 μM (highest concentration tested))	
COc1cccc(CN2CC[C@H]3[C@@H](C2)[C@H](c2ccc(F)cc2)CN3C(=O)c2cccnc2)c1		+ (≦60% viral titer at 15 μM)
O=C(c1ccncc1)N1CC(c2ccsc2)C2CN(Cc3ccc(F)cc3)CCC21 (stereo not drawn)		+ (≦60% viral titer at 15 μM)
O=C(c1ccccc1)N1CC(c2ccsc2)C2CN(Cc3ccc(F)c(F)c3)CCC21 (stereo not drawn)		++ (≦60% viral titer at 5 μM)
O=C(c1ccccc1)N1C[C@@H](c2ccsc2)[C@@H]2CN(Cc3ccc(Cl)cc3)CC[C@@H]21		++ (≦60% viral titer at 5 μM)
Cc1nn(C)cc1CN1CCC2C(C1)C(c1ccc(F)cc1)CN2C(=O)c1ccccc1 (stereo not drawn)		+ (≦60% viral titer at 15 μM)
